Data published in patent US12521393B2, “Cytotoxicity targeting chimeras for CCR2-expressing cells” (GLAXOSMITHKLINE INTELLECTUAL PROPERTY DEVELOPMENT LIMITED, priority 2021, dated 2026).

How the values were obtained:
[1] = test system: anti-cotinine antibody (SEQ ID NO: 9/10, humanized version); assay: SPR binding of anti-cotinine antibody to ARM compounds, Biacore 8k, 25° C., humanized antibody (Example 202); conditions: time reference 3 (association 360 s, dissociation 600 s, 30 μl/min)
From the text: (§1) Anti-cotinine antibodies having a heavy chain sequence of SEQ ID NO: 9 and a light chain sequence of SEQ ID NO: 10 (humanized version) or a heavy chain sequence of SEQ ID NO: 11 and a light chain sequence of SEQ ID NO: 12 (rabbit version) were captured via the Fc domain to a protein A or A/G surface on flow cell 2 of a CMS sensor chip using the Biacore 8k.
(§2) After antibody capture, a 1500 second wait step was included to reduce drift in the binding step. ARM compounds of Formula (I) were then flowed over the captured antibodies at varying top concentrations ranging from 250 nM to 4 μM (see Table 6 below for top concentration values). The top concentration was diluted 4-fold over 5 dilutions (with a 0 nM compound cycle included to blank subtract the data). Association and dissociation times of the ARMs compounds of Formula (I) varied between experiments as follows and indicated in Table 6 below: reference 1-association for 600 seconds and dissociation for 1200 seconds at 20 μl/min; reference 2-association for 240 seconds and dissociation for 300 seconds at 30 μl/min; reference 3-association for 360 seconds and dissociation for 600 seconds at 30 μl/min. Anti-cotinine antibody bound to the protein A or A/G surface was regenerated using 50 mM NaOH. Experiments were run at 25° C. at pH 7.4 using HBS-EP+ buffer using Biacore 8K control software and evaluated using Biacore Insight Evaluation software. Curves were fit with the 1:1 kinetic fit inherent to the software, utilising a local Rmax and local drift setting.
(§3) Anti-cotinine antibody was tested for binding to ARMs compounds of Formula (I) of the invention in the above assay in or more experimental runs and the results are shown in Table 6 below. Affinity is reported as a pKd value. The pKd value is the negative log of the Kd value, wherein the Kd value is the dissociation constant measured in molar (M) as noted above. For compounds tested in more than one experimental run, the pKd value is reported as an average.

[2] = target: anti-cotinine antibody (SEQ ID NO: 11/12, rabbit version); assay: SPR binding of anti-cotinine antibody to ARM compounds, Biacore 8k, 25° C., rabbit antibody (Example 202)
From the text: as §1, §2, §3

[3] = Blood drug concentration analysis by LC-MS/MS after IV dosing with anti-cotinine antibody (Example 201); type: in vivo; conditions: C57 background, human CCR2 knock-in, mouse; hCCR2 knock-in mice, IV 0.1 mpk compound + 10 mpk anti-cotinine antibody, whole blood, 48 hours post-dose; read-out: Exposure of Compound of Formula (I) 48 hours post-dose
Procedure: After bleeding, each mouse was sacrificed by cervical dislocation. […] Flow Cytometry Analysis:
Samples were analyzed on Q-Trap. […] The total run time was 2 minutes.

[4] = target: T1, CHOK1 cells engineered to overexpress human CCR2 (Homo sapiens, UniProt P41597); assay: Antibody dependent cellular cytotoxicity (ADCC) reporter assay (Example 199); type: cell-based; conditions: with anti-cotinine antibody (SEQ ID NO: 11/12), Jurkat FcγRIIIa NFAT-luciferase reporter cells, 12-18 hours, EC50 in molar, average or individual runs; for EC50: read-out: ADCC Reporter Assay pEC50 (converted)
T1 construct: expressed in transfected cells; host or cells: CHOK1
Procedure: An antibody dependent cellular cytoxocity reporter assay was conducted using the following four assay components: (i) ARM compound of Formula (I) targeting CCR2 (concentrations ranging from […] to 10 μM) (ii) anti-cotinine antibody having a heavy chain sequence of SEQ ID NO: 11 and a light chain sequence of SEQ ID NO: 12 (rabbit variable region with human IgG1 Fc domain containing a DE mutation (S239D/1332E)) (concentrations ranging from 0.01 μg/mL to 200 μg/mL); (iii) target cells: CHOK1 cells engineered to overexpress either human CCR2 (typically 1000-20,000 cells per well) and (iv) reporter cells: Jurkat cells engineered to express FcγRIIIa with the reporter gene luciferase under the control of the NFAT promoter (typically 3000-75,000 cells per well). Reagents were combined in a final volume of 20 μL in a 384-well tissue culture treated plate. All four assay components were incubated together for about 12-18 hours. Thereafter, BioGlo Detection reagent (Promega) was added to the wells to lyse the cells and provide a substrate for the luciferase reporter protein. Luminescence signal was measured on a microplate reader and signal: background was calculated by dividing the signal of a test well by the signal obtained when no heterobivalent compound of Formula (I) was added. EC50 calculations were done using Graphpad Prism Software, specifically a nonlinear regression curve fit (Y=Bottom+(Top−Bottom)/(1+10A((LogEC50−X)*HillSlope))).
ARMs compounds of Formula (I) of the invention were tested for ADCC activity in the above assay in or more experimental runs and the results are shown in Table 3 below. Potency of the compounds of Formula (I) of the invention is reported as a pEC50 value. The pEC50 value is the negative log of the EC50 value, wherein the EC50 value is the half maximal effective concentration measured in molar (M). For compounds tested in more than one experimental run, the pEC50 value is reported as an average.

| SMILES | concentration at 48 h [3] | EC50 [4] | further results |
| --- | --- | --- | --- |
| CN1C(=O)C[C@H](C(=O)NCCO[C@H]2CC[C@H](OCCCC(=O)N[C@H]3CC[C@H](C(=O)N[C@@H]4C[C@H](NC(C)(C)C)CC[C@@H]4N4CC[C@H](Nc5ncnc6ccc(C(F)(F)F)cc56)C4=O)CC3)CC2)[C@H]1c1cccnc1 [Example 10, (2S,3S)-N-(2-(((1R,4S)-4-(4-(((1R,4R)-4-(((1R,2S,5R)-5-(tert-Butylamino)-2-((S)-2-oxo-3-((6-(trifluoromethyl)quinazolin-4-yl)amino)pyrrolidin-1-yl)cyclohexyl)carbamoyl)cyclohexyl)amino)-4-oxobutoxy)cyclohexyl)oxy)ethyl)-1-methyl-5-oxo-2-(pyridin-3-yl)pyrrolidine-3-carboxamide] | – | – | ka [1]: 1.42e+06 M⁻¹ s⁻¹; kd [1]: 0.000484 s⁻¹; pKd [1]: 9.47; pKd ([2]; time reference 2 (association 240 s, dissociation 300 s, 30 μl/min)): Poor fit; pKd ([2]; time reference 3 (association 360 s, dissociation 600 s, 30 μl/min)): kd outside |
| CN1C(=O)C[C@H](C(=O)NCCOCCOCCOCCOCCOCCC(=O)N[C@@H]2C[C@H](NC(C)(C)C)CC[C@@H]2N2CC[C@H](Nc3ncnc4ccc(C(F)(F)F)cc34)C2=O)[C@H]1c1cccnc1 [Example 37, (2S,3S)-N-(18-(((1R,2S,5R)-5-(tert-Butylamino)-2-((S)-2-oxo-3-((6-(trifluoromethyl)quinazolin-4-yl)amino)pyrrolidin-1-yl)cyclohexyl)amino)-18-oxo-3,6,9,12,15-pentaoxaoctadecyl)-1-methyl-5-oxo-2-(pyridin-3-yl)pyrrolidine-3-carboxamide] | 48.7 ng/mL | 12.6 nM | – |
| CN1C(=O)C[C@H](C(=O)NCCOCCOCCOCCOCCOCCOCCC(=O)N[C@@H]2C[C@H](NC(C)(C)C)CC[C@@H]2N2CC[C@H](Nc3ncnc4ccc(C(F)(F)F)cc34)C2=O)[C@H]1c1cccnc1 [Example 38, (2S,3S)-N-(21-(((1R,2S,5R)-5-(tert-Butylamino)-2-((S)-2-oxo-3-((6-(trifluoromethyl)quinazolin-4-yl)amino)pyrrolidin-1-yl)cyclohexyl)amino)-21-oxo-3,6,9,12,15,18-hexaoxahenicosyl)-1-methyl-5-oxo-2-(pyridin-3-yl)pyrrolidine-3-carboxamide] | 47.6 ng/mL | 2.51 nM | – |
| CC(C)N(C)[C@@H]1CC[C@H](N2CC[C@H](Nc3ncnc4ccc(C(F)(F)F)cc34)C2=O)[C@H](NC(=O)CCOCCOCCOCCOCCOCCNC(=O)[C@H]2CC(=O)N(C)[C@@H]2c2cccnc2)C1 [Example 40, (2S,3S)-N-(18-(((1R,2S,5R)-5-(Isopropyl(methyl)amino)-2-((S)-2-oxo-3-((6-(trifluoromethyl)quinazolin-4-yl)amino)pyrrolidin-1-yl)cyclohexyl)amino)-18-oxo-3,6,9,12,15-pentaoxaoctadecyl)-1-methyl-5-oxo-2-(pyridin-3-yl)pyrrolidine-3-carboxamide] | – | 6.31 nM | – |
| CC(C)N(C)[C@@H]1CC[C@H](N2CC[C@H](Nc3ncnc4ccc(C(F)(F)F)cc34)C2=O)[C@H](NC(=O)CCOCCOCCOCCOCCOCCOCCNC(=O)[C@H]2CC(=O)N(C)[C@@H]2c2cccnc2)C1 [Example 41, (2S,3S)-N-(21-(((1R,2S,5R)-5-(isopropyl(methyl)amino)-2-((S)-2-oxo-3-((6-(trifluoromethyl)quinazolin-4-yl)amino)pyrrolidin-1-yl)cyclohexyl)amino)-21-oxo-3,6,9,12,15,18-hexaoxahenicosyl)-1-methyl-5-oxo-2-(pyridin-3-yl)pyrrolidine-3-carboxamide] | – | 2 nM | – |
| CC(C)N(C)[C@@H]1CC[C@H](N2CC[C@H](Nc3ncnc4ccc(C(F)(F)F)cc34)C2=O)[C@H](NC2CCN(C(=O)CCOCCOCCOCCOCCNC(=O)[C@H]3CC(=O)N(C)[C@@H]3c3cccnc3)CC2)C1 [Example 69, (2S,3S)-N-(15-(4-(((1R,2S,5R)-5-(Isopropyl(methyl)amino)-2-((S)-2-oxo-3-((6-(trifluoromethyl)quinazolin-4-yl)amino)pyrrolidin-1-yl)cyclohexyl)amino)piperidin-1-yl)-15-oxo-3,6,9,12-tetraoxapentadecyl)-1-methyl-5-oxo-2-(pyridin-3-yl)pyrrolidine-3-carboxamide] | 39.9 ng/mL | 0.316 nM | – |
| CC(C)N(C)[C@@H]1CC[C@H](N2CC[C@H](Nc3ncnc4ccc(C(F)(F)F)cc34)C2=O)[C@H](NC(=O)[C@H]2CC[C@@H](NC(=O)CCCOCCCCOCCNC(=O)[C@H]3CC(=O)N(C)[C@@H]3c3cccnc3)CC2)C1 [Example 122, (2S,3S)-N-(2-(4-(4-(((1S,4s)-4-(((1R,2S,5R)-5-(Isopropyl(methyl)amino)-2-((S)-2-oxo-3-((6-(trifluoromethyl)quinazolin-4-yl)amino)pyrrolidin-1-yl)cyclohexyl)carbamoyl)cyclohexyl)amino)-4-oxobutoxy)butoxy)ethyl)-1-methyl-5-oxo-2-(pyridin-3-yl)pyrrolidine-3-carboxamide] | – | – | ADCC Reporter Assay pEC50 [4]: 9 |
| CN1C(=O)C[C@H](C(=O)NCCOCCNC(=O)[C@H]2C[C@H](NC(=O)CCOCCC(=O)N[C@@H]3C[C@H](NC(C)(C)C)CC[C@@H]3N3CC[C@H](Nc4ncnc5ccc(C(F)(F)F)cc45)C3=O)C2)[C@H]1c1cccnc1 [Example 188, (2S,3S)-N-(2-(2-((1R,3S)-3-(3-(3-(((1R,2S,5R)-5-(tert-butylamino)-2-((S)-2-oxo-3-((6-(trifluoromethyl)quinazolin-4-yl)amino)pyrrolidin-1-yl)cyclohexyl)amino)-3-oxopropoxy)propanamido)cyclobutane-1-carboxamido)ethoxy)ethyl)-1-methyl-5-oxo-2-(pyridin-3-yl)pyrrolidine-3-carboxamide] | 73 ng/mL | 0.501 nM | – |
